Reference: paper PMC10218449, “Evidence for Angiotensin II as a Naturally Existing Suppressor for the Guanylyl Cyclase A Receptor and Cyclic GMP Generation” (International Journal of Molecular Sciences, 2023)

Key:
[1] = Circulating ANP levels in normal rats after infusion; type: in vivo, rat (Sprague-Dawley, male)
Protocol: (F) Urine output represented by urine volume collected at every 30 min interval during continuous infusion. (G) Urinary sodium excretion during the entire 90 min continuous infusion.
Protocols in this study have been approved by the Mayo Clinic Institutional Animal Care and Use Committee (IACUC). Rats (Sprague-Dawley, male, 10–11 weeks old) were anesthetized and maintained with 2% isoflurane. Rats were kept on heating pad at 37 °C for the entire experiment to maintain their body temperature. Polyethylene tubes (PE-50) were placed into a jugular vein for saline and peptides infusion and into a carotid artery for BP monitoring and blood sampling. The bladder was cannulated with a PE-90 tube for passive urine collection. […] After the 45 min equilibrium, BP was recorded, and blood was sampled as baseline reference value. […] Urine samples were collected every 30 min period and BP was measured every 15 min using CardioSOFT Pro software (Sonometrics Corporation). […] The volume of urine was measured, and the sodium concentrations were measured with an electrocyte analyzer (Diamond Diagnostics Inc., Holliston, MA, USA). Both plasma and urine samples were then stored at −80 °C until assayed. cGMP was measured in rat plasma and urine samples by a cGMP ELISA (Enzo Life Sciences, Farmingdale, NY, USA) as previously reported.

[2] = tested on: HEK293/GC-A^+/AT1^+ cells (human GC-A and AT1); experiment: Intracellular cGMP generation in HEK293/GC-A+/AT1+ cells; type: cell-based; details: valsartan 1 µM or Go6983 5 µM; ANP 10^−8 M, ANGII 10^−8 M; one-way ANOVA with Dunnett, p < 0.05
Text: We leveraged HEK293 cells as a cellular tool for mechanistic exploration in the current study. HEK293 cells (passage 4–6) were maintained in Dulbecco’s modified Eagle’s medium (DMEM) supplemented with 10% fetal bovine serum, 100 U/mL penicillin, 100 U/mL streptomycin, and designated antibiotics. HEK293/GC-A^+ and HEK293/GC-B^+ cell lines were generated from HEK293 parental cell transfected with plasmids (OriGene, Rockville, MD, USA) containing either human GC-A or GC-B cDNA sequences. Both GC-A and GC-B plasmid carried sequences for a green florescence protein (GFP) tag and resistance to Neomycin (G418). HEK293/GC-A^+/AT1^+ and HEK293/GC-A^+/AT2^+ cell lines were generated from HEK293/GC-A^+ transfected with lentiviral particle with clones of either human AT1 or AT2 receptor (OriGene, Rockville, MD, USA) using a polybrene transfection agent. Initial transfection was completed with multiplicity of infection (MOI) at 20, 10, and 1. The lentiviral vector carried sequence for resistance to puromycin. Positive HEK293/GC-A^+ and HEK293/GC-B^+ cells were cultured in a regular medium with 250 μg/mL G418; Likewise, positive HEK293/GC-A^+/AT1^+ or HEK293/GC-A^+/AT2^+ cells were cultured in a regular medium with 250 μg/mL G418 (to select for GC-A^+ cells) and 1 μg/mL puromycin (to select for AT1^+ or AT2^+ cells). […]

p38 MAPK = experiment: MAPK phosphorylation (p38 MAPK, western blot); type: cell-based, human; details: Go6983 at 5 µM, HEK293/GC-A^+/AT1^+ cells
Text: (§1) Figure 5 Involvement of PKC Signaling in the Crosstalk between ANGII and GC-A. (A) Protein expression of different human PKC isoforms in the membrane and cytosol fractions of different HEK293 cell lines (with or without treatment of ANGII). GC-A and NaK-ATPase serve as quality control for the separation of membrane and cytosol fractions. GAPDH serves as an additional control as it is primarily expressed in the cytosol fraction compared to membrane fraction. (B) Protein expression of phosphorylated PKC substrates, phosphorylated p38 MAPK, and p38 MAPK in HEK293/GC-A^+/AT1^+ cells treated with different PKC modulators. GAPDH serves as a loading control and 50 µg of total protein (determined using BCA method) was loaded in each lane. PMA, phorbol 12-myristate 13-acetate. […] (D) Hypothetical mechanism underlying the crosstalk between ANGII and GC-A derived from our in vitro studies: (1) ANGII naturally suppresses GC-A mediated cGMP production via AT1 receptor, but not the AT2 receptor nor direct effect on GC-A; (2) PKC is a critical downstream target of AT1 mediating this RAAS/NPS interaction.
(§2) HEK293 parental cells, HEK293/GC-A^+, HEK293/GC-B^+, HEK293/GC-A^+/AT1^+, and HEK293/GC-A^+/AT2^+ cells were cultured in 60 mm dish to reach 90–100% confluency before being harvested in RIPA buffer (Thermo Fisher Scientific, Waltham, MA, USA) with protease inhibitors. […]

PKC = PKC activity (phosphorylated pan-PKC substrates, western blot); type: cell-based, human; details: Go6983 at 5 µM, HEK293/GC-A^+/AT1^+ cells
Text: as §1, §2

## CC[C@H](C)[C@H](NC(=O)[C@H](Cc1ccc(O)cc1)NC(=O)[C@@H](NC(=O)[C@H](CCCNC(=N)N)NC(=O)[C@@H](N)CC(=O)O)C(C)C)C(=O)N[C@@H](Cc1cnc[nH]1)C(=O)N1CCC[C@H]1C(=O)N[C@@H](Cc1ccccc1)C(=O)O [ANGII, angiotensin II]
[1]; ANGII 50 pmol/kg/min with ANP 300 pmol/kg/min vs ANP alone, 90 min, N = 4 per group
  circulating ANP levels, effect of ANGII co-infusion (in words): no influence on circulating ANP levels

## CC[C@H](C)[C@@H]1NC(=O)[C@H](CCCNC(=N)N)NC(=O)[C@H](CC(=O)O)NC(=O)[C@H](CCSC)NC(=O)[C@H](CCCNC(=N)N)NC(=O)CNC(=O)CNC(=O)[C@H](Cc2ccccc2)NC(=O)[C@@H](NC(=O)[C@H](CO)NC(=O)[C@H](CO)NC(=O)[C@H](CCCNC(=N)N)NC(=O)[C@H](CCCNC(=N)N)NC(=O)[C@H](CC(C)C)NC(=O)[C@@H](N)CO)CSSC[C@@H](C(=O)N[C@@H](CC(N)=O)C(=O)N[C@@H](CO)C(=O)N[C@@H](Cc2ccccc2)C(=O)N[C@@H](CCCNC(=N)N)C(=O)N[C@@H](Cc2ccc(O)cc2)C(=O)O)NC(=O)CNC(=O)[C@H](CC(C)C)NC(=O)CNC(=O)[C@H](CO)NC(=O)[C@H](CCC(N)=O)NC(=O)[C@H](C)NC(=O)CNC1=O [ANP, atrial natriuretic peptide]
[1]; ANP alone, 300 pmol/kg/min continuous i.v. infusion, plasma at 90 min, mean ± SEM, N = 4, endogenous level 15.3 ± 1.4 pg/mL
  circulating ANP level: 18125.1 ± 1729.3 pg/mL

## CCCCC(=O)N(Cc1ccc(-c2ccccc2-c2nnn[nH]2)cc1)[C@H](C(=O)O)C(C)C [valsartan]
[2]
  rescue of ANGII suppression of ANP-induced cGMP (in words): significantly rescued the suppression effect of ANGII on ANP-induced cGMP

## Go6983
[2]
  rescue of ANGII suppression of ANP-induced cGMP (in words): significantly rescued the suppression effect of ANGII on ANP-induced cGMP
p38 MAPK
  MAPK dependence of PKC inhibition (in words): mitogen-activated protein kinase (MAPK) independent manner
PKC
  PKC activity inhibition (in words): effectively inhibited PKC activity
